Patent publication US11207291B2, “Antimicrobial compositions comprising cannabinoids and methods of using the same” (Graphium Biosciences, Inc., priority 2017, dated 2021)
Values after ≈ are worked out from the molar mass of the structure shown. Like-named read-outs stand apart in the source and are kept apart here.

Assays:
[1] = test system: Candida parapsilosis; settings: ATCC 22019, Example 4 table, cited from earlier work
[2] = test system: Aspergillus fumigatus; test: Broth microdilution MIC, yeast and fungi (Example 1); format: cell-based; settings: isolate MMX 5280 (ATCC MYA-3626)
[3] = test system: Candida parapsilosis; test: as above; format: cell-based; settings: Example 1, isolate MMX 2323 (ATCC 22019)
[4] = test system: Candida parapsilosis; test: Broth microdilution MIC, fungi (Example 4); format: cell-based; settings: for concentration at which 50% inhibition observed relative to the growth control: value in parenthesis; for MIC: Lodderomyces parapsilosis
[5] = test system: Aspergillus fumigatus; settings: MYA-3626; 48 hr; Example 4 table; cited from earlier work
[6] = test system: Aspergillus fumigatus; settings: ATCC MYA-3626; 48 hr; Example 1 table; cited from earlier work
[7] = test system: Aspergillus fumigatus; test: Broth microdilution MIC, fungi (Example 4); format: cell-based; settings: Example 4, isolate MMX 5280 (MYA-3626); for MIC: Aspergillus fumigatus
[8] = test system: Candida parapsilosis; settings: ATCC 22019, Example 1 table, cited from earlier work
[9] = test system: B. fragilis ATCC 25285; test: MIC/MBC testing (Example 5); format: cell-based; settings: Bacteroides fragilis, ATCC25285
[10] = test system: Bifidobacterium bifidum; test: Broth microdilution MIC, anaerobic bacteria (Example 4); format: cell-based; settings: isolate MMX 3965
[11] = test system: B. fragilis ATCC 25285; settings: Example 5 control agents table; cited from earlier work
[12] = test system: Lactobacillus jensenii; test: Broth microdilution MIC, anaerobic bacteria (Example 1); format: cell-based; settings: Lactobacillus jensenii; Example 1; isolate MMX 4149; read-out: MIC
[13] = test system: B. bifidum MMX 3965; test: MIC/MBC testing (Example 5); format: cell-based
[14] = test system: Bifidobacterium longum; test: Broth microdilution MIC, anaerobic bacteria (Example 1); format: cell-based; settings: Bifidobacterium longum; Example 1; isolate MMX 3968; read-out: MIC
[15] = test system: Bifidobacterium bifidum; test: as above; format: cell-based; settings: Bifidobacterium bifidum; Example 1; isolate MMX 3965; read-out: MIC
[16] = test system: Lactobacillus crispatus; test: as above; format: cell-based; settings: Lactobacillus crispatus; Example 1; isolate MMX 4147; read-out: MIC
[17] = test system: Clostridium difficile; test: as above; format: cell-based; settings: Clostridioides difficile
[18] = test system: Bacteroides fragilis; test: as above; format: cell-based; settings: Bacteroides fragilis, ATCC5285
[19] = test system: C. difficile; test: MIC/MBC testing (Example 5); format: cell-based; settings: for MBC:MIC: ratios of 1-4 are indicative of bactericidal activity
[20] = test system: Lactobacillus jensenii; test: Broth microdilution MIC, anaerobic bacteria (Example 4); format: cell-based; settings: isolate MMX 4149
[21] = test system: Clostridium difficile; test: as above; format: cell-based; settings: Clostridioides difficile
[22] = test system: Bifidobacterium longum; test: as above; format: cell-based; settings: isolate MMX 3968
[23] = test system: B. longum MMX 3968; test: MIC/MBC testing (Example 5); format: cell-based
[24] = test system: Bacteroides fragilis; test: Broth microdilution MIC, anaerobic bacteria (Example 4); format: cell-based; settings: ATCC25285, isolate MMX 123 (ATCC 25285)
[25] = test system: gram-negative aerobes; test: Broth microdilution MIC, summary (Example 4); format: cell-based; settings: tested alone
[26] = test system: Escherichia coli; test: Broth microdilution MIC, aerobic bacteria (Example 4); format: cell-based; settings: ATCC25922
[27] = test system: strains tested; test: MIC/MBC testing, summary (Example 5); format: cell-based
[28] = test system: Streptococcus pneumoniae; test: Broth microdilution MIC, aerobic bacteria (Example 4); format: cell-based; settings: ATCC49619
[29] = test system: evaluated yeast and fungal isolates; test: Broth microdilution MIC, summary (Example 4); format: cell-based
[30] = test system: Enterococcus faecalis (VSE); test: Broth microdilution MIC, aerobic bacteria (Example 4); format: cell-based; settings: ATCC29212
[31] = test system: S. pneumoniae ATCC 49619; test: MIC/MBC testing (Example 5); format: cell-based; settings: Streptococcus pneumoniae, ATCC49619
[32] = Compound precipitation in uninoculated solubility controls (Example 4); format: physicochemical; design: key to precipitation observed (type): NA: not applicable (no precipitation observed); TRP: trace precipitate; DCP: distinct precipitate
Protocol: Un-inoculated solubility control plates for each test media and drug were incubated in parallel with test plates and observed for evidence of drug precipitation. MICs were read where visible growth of the organism was inhibited.

[33] = test system: Pseudomonas aeruginosa; test: Broth microdilution MIC, aerobic bacteria (Example 4); format: cell-based
[34] = test system: S. aureus ATCC 29213; test: MIC/MBC testing (Example 5); format: cell-based
[35] = test system: E. faecalis MMX 848; test: MIC/MBC testing (Example 5); format: cell-based
[36] = test system: Enterococcus faecalis (VRE); test: microbe, parasite or virus in culture; format: cell-based
[37] = test system: Staphylococcus aureus (MSSA); test: Broth microdilution MIC, aerobic bacteria (Example 4); format: cell-based; settings: ATCC 29213 / MSSA
[38] = test system: Staphylococcus aureus (MRSA); test: microbe, parasite or virus in culture; format: cell-based
[39] = test system: S. pyogenes MMX 404; test: MIC/MBC testing (Example 5); format: cell-based
[40] = test system: Klebsiella pneumoniae (KPC-2); test: microbe, parasite or virus in culture; format: cell-based
[41] = test system: Streptococcus pyogenes; test: Broth microdilution MIC, aerobic bacteria (Example 4); format: cell-based
[42] = test system: E. faecalis ATCC 29212; test: MIC/MBC testing (Example 5); format: cell-based
[43] = test system: E. coli ATCC 25922; test: MIC/MBC testing (Example 5); format: cell-based; settings: Escherichia coli, ATCC25922
[44] = test system: S. aureus MMX 757; test: MIC/MBC testing (Example 5); format: cell-based
[45] = test system: Acinetobacter baumannii; test: Broth microdilution MIC, aerobic bacteria (Example 4); format: cell-based
[46] = Clostridioides difficile, ATCC700057, Example 5, ATCC 700057
[47] = ATCC700057, Example 4, isolate MMX 4381 (ATCC 700057)
[48] = Bifidobacterium bifidum, MMX3965
[49] = ratios of 1-4 are indicative of bactericidal activity
[50] = Staphylococcus aureus, ATCC29213
[51] = Clostridioides difficile, Example 5, MMX 8330
[52] = Clostridioides difficile, Example 5, MMX 8333
[53] = Enterococcus faecalis, ATCC29212
[54] = Bifidobacterium longum, MMX3968

## C[C@@H]1[C@H](O)[C@@H](C)/C=C/C=C/C=C/C=C/C=C/C=C/C=C/[C@H](O[C@@H]2O[C@H](C)[C@@H](O)[C@H](N)[C@@H]2O)C[C@@H]2O[C@](O)(C[C@@H](O)C[C@@H](O)[C@H](O)CC[C@@H](O)C[C@@H](O)CC(=O)O[C@H]1C)C[C@H](O)[C@H]2C(=O)O [Amphotericin B]
[1]; 24 hr
  CLSI QC range (MIC): (0.5-2)^3, μg/mL
[1]; 48 hr
  CLSI QC range (MIC): (0.25-4)^3 μg/mL
[2]; 24 hr
  MIC at 24 hr: 0.5, μg/mL
[2]; 48 hr
  MIC at 48 hr: 2 µg/mL (≈ 2.16 µM)
[3]; 24 hr
  MIC at 24 hr: 0.5 µg/mL (≈ 0.541 µM)
[3]; 48 hr
  MIC at 48 hr: 1 µg/mL (≈ 1.08 µM)
[4]; Example 4, 24 hr, isolate MMX 2323 (ATCC 22019)
  MIC at 24 hr: 0.12 µg/mL (≈ 0.13 µM)
[4]; Example 4, 48 hr, isolate MMX 2323 (ATCC 22019)
  MIC at 48 hr: 0.5 µg/mL (≈ 0.541 µM)
[5]
  CLSI QC range (MIC): (0.5-4)^3 μg/mL
[6]
  CLSI QC range (MIC): 0.5 to 4 µg/mL
[7]; 24 hr
  MIC at 24 hr: 0.25 µg/mL (≈ 0.271 µM)
[7]; 48 hr
  MIC at 48 hr: 1 µg/mL (≈ 1.08 µM)
[8]; 24 hr
  CLSI QC range (MIC): 0.5 to 2 µg/mL
[8]; 48 hr
  CLSI QC range (MIC): 0.25 to 4 µg/mL

## Cc1ncc([N+](=O)[O-])n1CCO [Metronidazole]
[9]; Example 5, read-out: MIC
  MIC: 0.5 µg/mL (≈ 2.92 µM)
[10]
  MIC: 2 µg/mL (≈ 11.7 µM)
[11]
  CLSI QC range (MIC): (0.25-2)^1 μg/mL
[12]
  MIC: > 32 µg/mL
[13]; Bifidobacterium bifidum, MMX3965, Example 5, read-out: MIC
  MIC: 1 µg/mL (≈ 5.84 µM)
[14]
  MIC: 8 µg/mL (≈ 46.7 µM)
[15]
  MIC: 1 µg/mL (≈ 5.84 µM)
[16]
  MIC: > 32 µg/mL
[17]; ATCC00057, Example 1, isolate MMX 4381 (ATCC 00057)
  MIC: 0.12 µg/mL (≈ 0.701 µM)
[17]; Example 1, isolate MMX 8330, read-out: MIC
  MIC: 0.12 µg/mL (≈ 0.701 µM)
[18]
  MIC: 0.5 µg/mL (≈ 2.92 µM)
[19]; [46]
  MIC: 0.12 µg/mL (≈ 0.701 µM)
[19]; Clostridioides difficile, Example 5, MMX 8330, read-out: MIC
  MIC: 0.5 µg/mL (≈ 2.92 µM)
[19]; Example 5, MMX 8333
  MIC: 0.5 µg/mL (≈ 2.92 µM)
[20]
  MIC: > 32 µg/mL
[21]; [47]
  MIC: 0.25 µg/mL (≈ 1.46 µM)
[21]; Example 4, isolate MMX 8330
  MIC: 0.25 µg/mL (≈ 1.46 µM)
[21]; Example 4, isolate MMX 8333
  MIC: 2 µg/mL (≈ 11.7 µM)
[22]
  MIC: 8 µg/mL (≈ 46.7 µM)
[23]; Bifidobacterium longum, MMX3968, Example 5, read-out: MIC
  MIC: 8 µg/mL (≈ 46.7 µM)

## CCCCCc1cc(O)c2c(c1)OC(C)(C)[C@@H]1CCC(C)=C[C@@H]21 [THC, tetrahydrocannabinol]
[24]
  MIC: > 128 µg/mL
[9]
  MIC: > 256 µg/mL
[10]
  MIC: 16 µg/mL (≈ 50.9 µM)
[25]
  activity against Gram-negative aerobes: inactive
[26]
  MIC: > 128 µg/mL
[27]
  biocidal activity against the strains tested: overall biocidal
[13]; [48]
  MBC: 128 µg/mL (≈ 407 µM)
  MIC: 32 µg/mL (≈ 102 µM)
[13]; [49]
  MBC:MIC: 4
[28]
  MIC: 1 µg/mL (≈ 3.18 µM)
[29]
  activity against yeast and fungal isolates: Neither THC nor CBD were active
[30]
  MIC: 2 µg/mL (≈ 6.36 µM)
[31]
  MIC: 1 µg/mL (≈ 3.18 µM)
[32]; Brucella Broth
  concentration at which precipitation was observed: 128 µg/mL
  precipitation observed (type): DCP
[32]; MHB II
  precipitation observed (type): DCP
[32]; MHB II with Blood
  precipitation observed (type): none
[32]; RPMI
  precipitation observed (type): TRP
[33]
  MIC: > 128 µg/mL
[34]; [50]
  MBC: 4 µg/mL (≈ 12.7 µM)
  MIC: 4 µg/mL (≈ 12.7 µM)
[34]; [49]
  MBC:MIC: 1
[35]; Enterococcus faecalis, MMX848
  MBC: 4 µg/mL (≈ 12.7 µM)
  MIC: 2 µg/mL (≈ 6.36 µM)
[35]; [49]
  MBC:MIC: 2
[4]; Example 4, 24 hr
  concentration at which 50% inhibition observed relative to the growth control: 4 µg/mL
[4]; Example 4, 48 hr
  concentration at which 50% inhibition observed relative to the growth control: 4 µg/mL
[4]; ATCC22019, 24 h, read-out: MIC at 24 hr
  MIC: > 128 µg/mL
[4]; ATCC22019, Example 4, 48 hr, isolate MMX 2323 (ATCC 22019), read-out: MIC at 48 hr
  MIC: > 128 µg/mL
[36]
  MIC: 2 µg/mL (≈ 6.36 µM)
[37]
  MIC: 2 µg/mL (≈ 6.36 µM)
[19]; ATCC 700057
  MBC:MIC: 2
[19]; [46]
  MBC: 128 µg/mL (≈ 407 µM)
  MIC: 64 µg/mL (≈ 204 µM)
[19]; [51]
  MBC: 64 µg/mL (≈ 204 µM)
  MIC: 64 µg/mL (≈ 204 µM)
[19]; [52]
  MBC: 128 µg/mL (≈ 407 µM)
  MIC: 64 µg/mL (≈ 204 µM)
[19]; MMX 8330
  MBC:MIC: 1
[19]; MMX 8333
  MBC:MIC: 2
[38]
  MIC: 2 µg/mL (≈ 6.36 µM)
[20]
  MIC: 128 µg/mL (≈ 407 µM)
[39]; Streptococcus pyogenes, MMX404
  MBC: 32 µg/mL (≈ 102 µM)
  MIC: 32 µg/mL (≈ 102 µM)
[39]; [49]
  MBC:MIC: 1
[21]; [47]
  MIC: 32 µg/mL (≈ 102 µM)
[21]; Example 4, isolate MMX 8330
  MIC: 32 µg/mL (≈ 102 µM)
[21]; Example 4, isolate MMX 8333
  MIC: 32 µg/mL (≈ 102 µM)
[7]; 24 hr, read-out: MIC at 24 hr
  MIC: > 128 µg/mL
[7]; 48 hr, read-out: MIC at 48 hr
  MIC: > 128 µg/mL
[40]
  MIC: > 128 µg/mL
[41]
  MIC: 16 µg/mL (≈ 50.9 µM)
[22]
  MIC: 32 µg/mL (≈ 102 µM)
[42]; [53]
  MBC: 8 µg/mL (≈ 25.4 µM)
  MIC: 2 µg/mL (≈ 6.36 µM)
[42]; [49]
  MBC:MIC: 4
[43]
  MIC: > 256 µg/mL
[44]; Staphylococcus aureus, MMX757
  MBC: 32 µg/mL (≈ 102 µM)
  MIC: 4 µg/mL (≈ 12.7 µM)
[44]; [49]
  MBC:MIC: 8
[23]; [54]
  MBC: > 256 µg/mL
  MIC: 32 µg/mL (≈ 102 µM)
[23]; [49]
  MBC:MIC: >8
[45]
  MIC: > 128 µg/mL
